The source of these data is article PMC12283027, “Development of Potent and Selective RIPK1 Degraders Targeting Its Nonenzymatic Function for Cancer Treatment” (Journal of Medicinal Chemistry, 2025).

The assay deals with T1, Receptor-interacting protein kinase 1 (RIPK1) (Homo sapiens, UniProt Q13546).
T1 construct: with VHL
T1 sequence (Q13546 whole entry): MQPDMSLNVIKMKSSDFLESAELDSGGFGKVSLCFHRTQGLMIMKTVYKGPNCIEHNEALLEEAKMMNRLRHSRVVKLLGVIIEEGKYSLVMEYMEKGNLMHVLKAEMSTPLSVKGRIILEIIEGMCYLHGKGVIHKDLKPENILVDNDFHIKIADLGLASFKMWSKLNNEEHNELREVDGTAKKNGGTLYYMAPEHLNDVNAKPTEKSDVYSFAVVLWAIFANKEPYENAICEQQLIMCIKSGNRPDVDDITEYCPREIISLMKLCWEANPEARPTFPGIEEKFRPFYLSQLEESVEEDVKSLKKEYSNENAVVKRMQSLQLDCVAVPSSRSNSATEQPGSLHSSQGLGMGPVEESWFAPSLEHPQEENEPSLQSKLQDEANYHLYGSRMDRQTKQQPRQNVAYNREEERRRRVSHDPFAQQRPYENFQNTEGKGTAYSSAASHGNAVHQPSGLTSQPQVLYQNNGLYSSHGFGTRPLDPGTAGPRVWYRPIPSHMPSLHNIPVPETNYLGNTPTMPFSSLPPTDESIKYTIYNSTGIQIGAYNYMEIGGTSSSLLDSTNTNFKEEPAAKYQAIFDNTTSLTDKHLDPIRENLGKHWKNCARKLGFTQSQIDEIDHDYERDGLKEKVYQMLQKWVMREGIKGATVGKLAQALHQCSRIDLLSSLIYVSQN
T1 sequence (P40337 whole entry partner): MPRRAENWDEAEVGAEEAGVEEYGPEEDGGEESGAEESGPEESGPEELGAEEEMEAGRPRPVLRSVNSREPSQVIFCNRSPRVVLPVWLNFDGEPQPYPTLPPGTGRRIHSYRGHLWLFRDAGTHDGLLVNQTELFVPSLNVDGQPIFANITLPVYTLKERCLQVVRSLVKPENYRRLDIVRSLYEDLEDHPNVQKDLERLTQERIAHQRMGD
Briefly: cell-based. On the set-up: HiBiT luminescence of CRISPR-tagged endogenous RIPK1 (C-terminal HiBiT) after PROTAC treatment; degradation DC50 and Dmax. Particulars: HEK293T-RIPK1-HiBiT cells; read-out: Dmax (HEK293T-RIPK1-HiBiT cell line). On the procedure:
Screening of RIPK1 Degraders Using HEK-293T-RIPK1-HiBiT cells  3 Primary screening RIPK1 degraders using HEK293T-RIPK1-HiBiT cell line. Cells were seeded in 96-well plates and treated with test compounds for 20 h. After treatment, Bioluminescence signal reflecting RIPK1 protein level was generated by adding Nano-Glo HiBiT detect reagent. A) Bioluminescence signal was visualized using Bio-Rad ChemiDoc MP Imaging system. The grayscale intensity is positively correlated with protein abundance. B) Relative luminescence Units (RLUs) in each well was measured using CLARIOstar plate reader. DC50 values were calculated by nonlinear regression analysis in GraphPad Prism software. DC50 = dose that reduces RIPK1 protein by 50%. D max = maximum reduction of RIPK1 protein achieved by the compound. Guide RNA oligos for RIPK1 (foward: CACCGA-GCCCAT-CCAGGG-TTAGTTC. reverse: AAACGA-ACTAAC-CCTGGA-TGGGCTC) were cloned into Cas9 expression plasmid (pSpCas9–2A-GFP purchased from Addgene), and cotransfected with donor DNA oligo using FuGENE HD Transfection Reagent (Promega). GFP positive cells were FACS sorted and single clones were screened for HiBiT signal by Nano Glo HiBiT Lytic Detection System (Promega).
What is called Dmax is the greatest extent of degradation seen. Take `Cc1ncsc1-c1ccc([C@H](C)NC(=O)[C@@H]2C[C@@H](O)CN2C(=O)[C@@H](NC(=O)CCCCNC(=O)Cn2cc(-c3cnc(N)c4c(-c5ccc6c(c5)CCN6C(=O)Cc5ccccc5)csc34)cn2)C(C)(C)C)cc1` [216-12]: the Dmax came to 51%.

In the case of `Cc1ncsc1-c1ccc([C@H](C)NC(=O)[C@@H]2C[C@@H](O)CN2C(=O)[C@@H](NC(=O)CCCNC(=O)Cn2cc(-c3cnc(N)c4c(-c5ccc6c(c5)CCN6C(=O)Cc5ccccc5)csc34)cn2)C(C)(C)C)cc1` [216-11], the Dmax was found to be 62%.

As for `Cc1ncsc1-c1ccc([C@H](C)NC(=O)[C@@H]2C[C@@H](O)CN2C(=O)[C@@H](NC(=O)CCCCNC2CCN(C(=O)Cn3cc(-c4cnc(N)c5c(-c6ccc7c(c6)CCN7C(=O)Cc6ccccc6)csc45)cn3)CC2)C(C)(C)C)cc1` [229-2], the Dmax is 9%.

As to `Cc1ncsc1-c1ccc([C@H](C)NC(=O)[C@@H]2C[C@@H](O)CN2C(=O)[C@@H](NC(=O)C2CCN(CCCNC(=O)Cn3cc(-c4cnc(N)c5c(-c6ccc7c(c6)CCN7C(=O)Cc6ccccc6)csc45)cn3)CC2)C(C)(C)C)cc1` [225-7], the Dmax turned out to be 22%.

Regarding `Cc1ncsc1-c1ccc([C@H](C)NC(=O)[C@@H]2C[C@@H](O)CN2C(=O)[C@@H](NC(=O)CCCOc2ccc(NC(=O)Cn3cc(-c4cnc(N)c5c(-c6ccc7c(c6)CCN7C(=O)Cc6ccccc6)csc45)cn3)cc2)C(C)(C)C)cc1` [217-11], the Dmax was found to be 95%.

For the compound `Cc1ncsc1-c1ccc([C@H](C)NC(=O)[C@@H]2C[C@@H](O)CN2C(=O)[C@@H](NC(=O)CN2CCN(C3CCN(C(=O)Cn4cc(-c5cnc(N)c6c(-c7ccc8c(c7)CCN8C(=O)Cc7ccccc7)csc56)cn4)CC3)CC2)C(C)(C)C)cc1` [225-2], the Dmax stood at 91%.

For `Cc1ncsc1-c1ccc([C@H](C)NC(=O)[C@@H]2C[C@@H](O)CN2C(=O)[C@@H](NC(=O)CN2CCN(CC3CCN(C(=O)Cn4cc(-c5cnc(N)c6c(-c7ccc8c(c7)CCN8C(=O)Cc7ccccc7)csc56)cn4)CC3)CC2)C(C)(C)C)cc1` [225-4], the Dmax came to 93%.

As for `Cc1ncsc1-c1ccc([C@H](C)NC(=O)[C@@H]2C[C@@H](O)CN2C(=O)[C@@H](NC(=O)CCCCOc2ccc(NC(=O)Cn3cc(-c4cnc(N)c5c(-c6ccc7c(c6)CCN7C(=O)Cc6ccccc6)csc45)cn3)cc2)C(C)(C)C)cc1` [217-12], the Dmax turned out to be 93%.

As to `Cc1ncsc1-c1ccc([C@H](C)NC(=O)[C@@H]2C[C@@H](O)CN2C(=O)[C@@H](NC(=O)CCN2CCN(C(=O)CNC(=O)Cn3cc(-c4cnc(N)c5c(-c6ccc7c(c6)CCN7C(=O)Cc6ccccc6)csc45)cn3)CC2)C(C)(C)C)cc1` [229-3], the Dmax worked out at 5%.

Turning to `Cc1ncsc1-c1ccc([C@H](C)NC(=O)[C@@H]2C[C@@H](O)CN2C(=O)[C@@H](NC(=O)COc2ccc(CCNC(=O)Cn3cc(-c4cnc(N)c5c(-c6ccc7c(c6)CCN7C(=O)Cc6ccccc6)csc45)cn3)cc2)C(C)(C)C)cc1` [204-2], the maximal degradation (Dmax) was determined as 95%.

In the case of `Cc1ncsc1-c1ccc([C@H](C)NC(=O)[C@@H]2C[C@@H](O)CN2C(=O)[C@@H](NC(=O)COCCOCCOCCNC(=O)Cn2cc(-c3cnc(N)c4c(-c5ccc6c(c5)CCN6C(=O)Cc5ccccc5)csc34)cn2)C(C)(C)C)cc1` [208-4], the Dmax worked out at 75%.

As to `Cc1ncsc1-c1ccc([C@H](C)NC(=O)[C@@H]2C[C@@H](O)CN2C(=O)[C@@H](NC(=O)CCOc2ccc(CCNC(=O)Cn3cc(-c4cnc(N)c5c(-c6ccc7c(c6)CCN7C(=O)Cc6ccccc6)csc45)cn3)cc2)C(C)(C)C)cc1` [204-4], the Dmax is 96%.

In the case of `Cc1ncsc1-c1ccc([C@H](C)NC(=O)[C@@H]2C[C@@H](O)CN2C(=O)[C@@H](NC(=O)CNC(=O)Cn2cc(-c3cnc(N)c4c(-c5ccc6c(c5)CCN6C(=O)Cc5ccccc5)csc34)cn2)C(C)(C)C)cc1` [216-9], the Dmax amounted to 1%.

As to `Cc1ncsc1-c1ccc([C@H](C)NC(=O)[C@@H]2C[C@@H](O)CN2C(=O)[C@@H](NC(=O)C2CCN(CCNC(=O)Cn3cc(-c4cnc(N)c5c(-c6ccc7c(c6)CCN7C(=O)Cc6ccccc6)csc45)cn3)CC2)C(C)(C)C)cc1` [225-6], the Dmax was 34%.

Take `Cc1ncsc1-c1ccc([C@H](C)NC(=O)[C@@H]2C[C@@H](O)CN2C(=O)[C@@H](NC(=O)CCCCCOc2ccc(CNC(=O)Cn3cc(-c4cnc(N)c5c(-c6ccc7c(c6)CCN7C(=O)Cc6ccccc6)csc45)cn3)cc2)C(C)(C)C)cc1` [214-9]: the Dmax turned out to be 87%.

As for `Cc1ncsc1-c1ccc([C@H](C)NC(=O)[C@@H]2C[C@@H](O)CN2C(=O)[C@@H](NC(=O)COCCOCCOCCOCCNC(=O)Cn2cc(-c3cnc(N)c4c(-c5ccc6c(c5)CCN6C(=O)Cc5ccccc5)csc34)cn2)C(C)(C)C)cc1` [208-6], the Dmax is 55%.

For `Cc1ncsc1-c1ccc([C@H](C)NC(=O)[C@@H]2C[C@@H](O)CN2C(=O)[C@@H](NC(=O)CN2CCN(C(=O)Cn3cc(-c4cnc(N)c5c(-c6ccc7c(c6)CCN7C(=O)Cc6ccccc6)csc45)cn3)CC2)C(C)(C)C)cc1` [225-3], the Dmax was 87%.

As to `Cc1ncsc1-c1ccc([C@H](C)NC(=O)[C@@H]2C[C@@H](O)CN2C(=O)[C@@H](NC(=O)CCCCCN2CCN(C(=O)Cn3cc(-c4cnc(N)c5c(-c6ccc7c(c6)CCN7C(=O)Cc6ccccc6)csc45)cn3)CC2)C(C)(C)C)cc1` [229-1], the Dmax turned out to be 58%.

`Cc1ncsc1-c1ccc([C@H](C)NC(=O)[C@@H]2C[C@@H](O)CN2C(=O)[C@@H](NC(=O)COCCOc2ccc(CNC(=O)Cn3cc(-c4cnc(N)c5c(-c6ccc7c(c6)CCN7C(=O)Cc6ccccc6)csc45)cn3)cc2)C(C)(C)C)cc1` [224-5]: the Dmax stood at 93%.

Turning to `Cc1ncsc1-c1ccc([C@H](C)NC(=O)[C@@H]2C[C@@H](O)CN2C(=O)[C@@H](NC(=O)COCCOc2ccc(CCNC(=O)Cn3cc(-c4cnc(N)c5c(-c6ccc7c(c6)CCN7C(=O)Cc6ccccc6)csc45)cn3)cc2)C(C)(C)C)cc1` [224-6], the Dmax came out at 93%.

On to `Cc1ncsc1-c1ccc([C@H](C)NC(=O)[C@@H]2C[C@@H](O)CN2C(=O)[C@@H](NC(=O)CCCCCCNC(=O)Cn2cc(-c3cnc(N)c4c(-c5ccc6c(c5)CCN6C(=O)Cc5ccccc5)csc34)cn2)C(C)(C)C)cc1` [216-14], for which the Dmax was 88%.

On to `Cc1ncsc1-c1ccc([C@H](C)NC(=O)[C@@H]2C[C@@H](O)CN2C(=O)[C@@H](NC(=O)COc2ccc(CNC(=O)Cn3cc(-c4cnc(N)c5c(-c6ccc7c(c6)CCN7C(=O)Cc6ccccc6)csc45)cn3)cc2)C(C)(C)C)cc1` [214-6], for which the Dmax was 71%.

Turning to `Cc1ncsc1-c1ccc([C@H](C)NC(=O)[C@@H]2C[C@@H](O)CN2C(=O)[C@@H](NC(=O)CCCCOc2ccc(CNC(=O)Cn3cc(-c4cnc(N)c5c(-c6ccc7c(c6)CCN7C(=O)Cc6ccccc6)csc45)cn3)cc2)C(C)(C)C)cc1` [214-8], the Dmax turned out to be 90%.

Turning to `Cc1ncsc1-c1ccc([C@H](C)NC(=O)[C@@H]2C[C@@H](O)CN2C(=O)[C@@H](NC(=O)CCCCCOc2ccc(NC(=O)Cn3cc(-c4cnc(N)c5c(-c6ccc7c(c6)CCN7C(=O)Cc6ccccc6)csc45)cn3)cc2)C(C)(C)C)cc1` [217-13], the Dmax amounted to 92%.

`Cc1ncsc1-c1ccc([C@H](C)NC(=O)[C@@H]2C[C@@H](O)CN2C(=O)[C@@H](NC(=O)COCCOCCNC(=O)Cn2cc(-c3cnc(N)c4c(-c5ccc6c(c5)CCN6C(=O)Cc5ccccc5)csc34)cn2)C(C)(C)C)cc1` [208-2]: the Dmax amounted to 78%.

With `Cc1ncsc1-c1ccc([C@H](C)NC(=O)[C@@H]2C[C@@H](O)CN2C(=O)[C@@H](NC(=O)COCCOCCOc2ccc(CCNC(=O)Cn3cc(-c4cnc(N)c5c(-c6ccc7c(c6)CCN7C(=O)Cc6ccccc6)csc45)cn3)cc2)C(C)(C)C)cc1` [224-8], the Dmax is 92%.

Take `Cc1ncsc1-c1ccc([C@H](C)NC(=O)[C@@H]2C[C@@H](O)CN2C(=O)[C@@H](NC(=O)CCN2CCN(CCNC(=O)Cn3cc(-c4cnc(N)c5c(-c6ccc7c(c6)CCN7C(=O)Cc6ccccc6)csc45)cn3)CC2)C(C)(C)C)cc1` [229-4]: the Dmax was 25%.

On to `Cc1ncsc1-c1ccc([C@H](C)NC(=O)[C@@H]2C[C@@H](O)CN2C(=O)[C@@H](NC(=O)COc2ccc(NC(=O)Cn3cc(-c4cnc(N)c5c(-c6ccc7c(c6)CCN7C(=O)Cc6ccccc6)csc45)cn3)cc2)C(C)(C)C)cc1` [217-10], for which the Dmax turned out to be 96%.

Take `Cc1ncsc1-c1ccc([C@H](C)NC(=O)[C@@H]2C[C@@H](O)CN2C(=O)[C@@H](NC(=O)COCCOCCOc2ccc(CNC(=O)Cn3cc(-c4cnc(N)c5c(-c6ccc7c(c6)CCN7C(=O)Cc6ccccc6)csc45)cn3)cc2)C(C)(C)C)cc1` [224-7]: the Dmax was found to be 93%.

With `Cc1ncsc1-c1ccc([C@H](C)NC(=O)[C@@H]2C[C@@H](O)CN2C(=O)[C@@H](NC(=O)CCCCCNC(=O)Cn2cc(-c3cnc(N)c4c(-c5ccc6c(c5)CCN6C(=O)Cc5ccccc5)csc34)cn2)C(C)(C)C)cc1` [216-13], the greatest degradation seen (Dmax) is 93%.

As for `Cc1ncsc1-c1ccc([C@H](C)NC(=O)[C@@H]2C[C@@H](O)CN2C(=O)[C@@H](NC(=O)CCCCCCOc2ccc(CNC(=O)Cn3cc(-c4cnc(N)c5c(-c6ccc7c(c6)CCN7C(=O)Cc6ccccc6)csc45)cn3)cc2)C(C)(C)C)cc1` [214-10], the Dmax was 92%.

For `Cc1ncsc1-c1ccc([C@H](C)NC(=O)[C@@H]2C[C@@H](O)CN2C(=O)[C@@H](NC(=O)CCCCCCCNC(=O)Cn2cc(-c3cnc(N)c4c(-c5ccc6c(c5)CCN6C(=O)Cc5ccccc5)csc34)cn2)C(C)(C)C)cc1` [216-15], the Dmax amounted to 94%.
